Laboratory results reported in the RepoRT retention time repository.

Test: Waters ACQUITY UPLC BEH C18, 100 × 2.1 mm, 1.7 µm, 40 °C, 0.3 to 0.4 mL/min, estimated dead time 0.63 min; A: water + 0.1% formic acid; B: methanol + 0.1% formic acid; gradient (min/%B) 0/0.5 0.1/0.5 10/80 10.1/99.5 12/99.5
Conditions: stereoisomer not certain
Molecule `CC1OC(OCC2OC(Oc3c(-c4ccc(O)c(O)c4)oc4cc(OC5OC(CO)C(O)C(O)C5O)cc(O)c4c3=O)C(O)C(O)C2O)C(O)C(O)C1O` (stereo not given) has an LC retention time of 3.39 min.
With `COc1cc(-c2cc(=O)c3c(O)cc(OC4OC(C(=O)O)C(O)C(O)C4OC4OC(C(=O)O)C(O)C(O)C4O)cc3o2)cc(OC)c1O` (stereo not given) the LC retention time was 3.96 min.
Molecule `C=C(CCC=C(C)C)C1CCC2(C)C1C(O)CC1C3(C)CCC(O)C(C)(C)C3C(OC3OC(CO)C(O)C(O)C3OC3OC(C)C(O)C(O)C3O)CC12C` (stereo not given) has an LC retention time of 7.57 min.
`CC1(C)CCC2(C(=O)O)C(O)CC3(C)C(=CCC4C5(C)CCC(OC6OC(CO)C(O)C(O)C6O)C(C)(C)C5CCC43C)C2C1` (stereo not given) gave an LC retention time of 7.33 min.
`O=C1CC(c2ccc(O)cc2)Oc2cc(O)ccc21` (stereo not given) gave an LC retention time of 5.3 min.
`CCC1CC2CN3CCC4(O)C(=Nc5ccc(OC)cc54)C(C(=O)OC)(C2)C13` (stereo not given) gave an LC retention time of 4.01 min.
Work on `O=C(O)CC(=O)OCC1OC(Oc2c(-c3ccc(O)c(O)c3)oc3cc(OC4OC(CO)C(O)C(O)C4O)cc(O)c3c2=O)C(O)C(O)C1O` (stereo not given) yielded an LC retention time of 3.11 min.
`CC1OC(OC2C(OC3C(OC4CCC5(C)C(CCC6(C)C5CC=C5C7CC(C)(C)CC(OC8OC(C)C(O)C(O)C8O)C7(C)CCC56C)C4(C)CO)OC(C(=O)O)C(O)C3O)OCC(O)C2O)C(O)C(O)C1O` (stereo not given) showed an LC retention time of 5.86 min.
With `O=c1cc(-c2ccc(O)cc2)oc2c(C3OCC(O)C(O)C3O)c(O)c(C3OCC(O)C(O)C3O)c(O)c12` (stereo not given) the LC retention time was 3.89 min.
With `O=C(O)c1cc(O)c2c(c1)C(C1c3cc(C(=O)O)cc(O)c3C(=O)c3c(OC4OC(CO)C(O)C(O)C4O)cccc31)c1cccc(OC3OC(CO)C(O)C(O)C3O)c1C2=O` (stereo not given) the LC retention time was 3.82 min.
`CCN(CC)CCOC(=O)c1ccc(N)cc1` showed an LC retention time of 2.75 min.
Molecule `COC(=O)C1=COC(C)C2CN3CCc4c([nH]c5ccccc45)C3CC12` (stereo not given) has an LC retention time of 4.87 min.
For `OCC1OC(Oc2cc3c(OC4OC(CO)C(O)C(O)C4O)cc(O)cc3[o+]c2-c2ccc(O)c(O)c2)C(O)C(O)C1O` (stereo not given), the LC retention time was 2.5 min.
In the case of `CC(=O)N1CC(C)CCC12OC1CC3C4CC=C5CC(O)CCC5(C)C4CCC3(C)C1C2C` (stereo not given), the LC retention time is reported as 7.36 min.
`CCC(C)C(N)C(=O)NC(CO)C(=O)O` (stereo not given) showed an LC retention time of 1.8 min.
`O=C(O)CCCCCCC(=O)O` gave an LC retention time of 4.1 min.
Work on `C=C1CCCC2(C)CC3(O)OC(=O)C(C)=C3CC12` (stereo not given) yielded an LC retention time of 7.91 min.
Work on `COc1c(CC=C(C)C)c(O)cc2oc(=O)c(-c3ccc(O)cc3O)cc12` yielded an LC retention time of 7.01 min.
`COc1cc(C=CC(=O)O)cc(OC)c1O` gave an LC retention time of 4.21 min.
Molecule `NC(N)=NCCCCNC(=O)C=Cc1ccc(O)cc1` has an LC retention time of 3.07 min.
`COc1cc(C=CC(=O)NCCCCN)ccc1O` gave an LC retention time of 2.7 min.
In the case of `COc1cc(C=O)ccc1OC(C)=O`, the LC retention time is reported as 5.59 min.
Molecule `CC1OC(Oc2cc(O)c3c(=O)c(OC4OC(CO)C(O)C(O)C4OC4OC(C)C(O)C(O)C4O)c(-c4ccc(O)c(O)c4)oc3c2)C(O)C(O)C1O` (stereo not given) has an LC retention time of 3.09 min.
With `CC(C)=CCc1cc(C(O)=CC(=O)c2cc(CC=C(C)C)c(O)cc2O)ccc1O` the LC retention time was 9.52 min.
For `CC(C)CC(N)C(=O)O` (stereo not given), the LC retention time was 1.87 min.
For `COC1=CC2C3Cc4ccc(OC)c(O)c4C2(CCN3C)CC1=O` (stereo not given), the LC retention time was 3.03 min.
`CCCCCCCCC1OC1CCCCCCCC(=O)O` (stereo not given) gave an LC retention time of 10.3 min.
`O=C1NCC(=O)N2CCCC12` (stereo not given) gave an LC retention time of 2.06 min.
With `CC1(C)CCC2(C(=O)OC3OC(CO)C(O)C(O)C3O)C(O)CC3(C)C(=CCC4C5(C)CCC(OC6OCC(O)C(OC7OC(CO)C(O)C(O)C7O)C6O)C(C)(C)C5CCC43C)C2C1` (stereo not given) the LC retention time was 6.06 min.
With `CC(C)=CCc1cc(C2COc3cc(O)c(CC=C(C)C)c(O)c3C2=O)ccc1O` (stereo not given) the LC retention time was 9.45 min.
In the case of `CS(=O)CCCCCCCC#N` (stereo not given), the LC retention time is reported as 4.16 min.
`CC1(C)CC(O)C2(C)CCC3(C)C(=CCC4C5(C)CCC(OC6OC(C(=O)O)C(O)C(O)C6OC6OCC(O)C(O)C6O)C(C)(CO)C5CCC43C)C2C1` (stereo not given) showed an LC retention time of 7.44 min.
`O=c1c(OC2OC(CO)C(O)C(O)C2O)c(-c2cc(O)c(O)c(OC3OC(CO)C(O)C(O)C3O)c2)oc2cc(O)cc(O)c12` (stereo not given) showed an LC retention time of 3.34 min.
`O=c1cc(-c2ccc(O)cc2)oc2c(C3OC(CO)C(O)C3O)c(O)c(C3OC(CO)C(O)C(O)C3O)c(O)c12` (stereo not given) showed an LC retention time of 3.55 min.
Molecule `C=CC1C(OC2OC(CO)C(O)C(O)C2O)OC=C(C(=O)O)C1Cc1nccc2c1[nH]c1ccc(O)cc12` (stereo not given) has an LC retention time of 3.69 min.
`CCC=CCC=CC=CC(O)CCCCCCCC(=O)O` (stereo not given) gave an LC retention time of 9.1 min.
With `O=C(O)CC(=O)OCC1OC(Oc2c(-c3ccc(O)cc3)oc3cc(OC4OC(CO)C(O)C(O)C4O)cc(O)c3c2=O)C(O)C(O)C1O` (stereo not given) the LC retention time was 3.36 min.
For `COc1cc(C=CC(=O)O)cc(OC)c1`, the LC retention time was 6.26 min.
`CC(C)=CCc1cc(-c2coc3c(C(C=C(C)C)c4cc(-c5coc6cc(O)cc(O)c6c5=O)ccc4O)c(O)cc(O)c3c2=O)ccc1O` (stereo not given) showed an LC retention time of 8.22 min.
Molecule `CC1(C(=O)O)CCC2(C)CCC3(C)C(=CCC4C5(C)CCC(OC6OC(C(=O)O)C(O)C(O)C6OC6OC(C(=O)O)C(O)C(O)C6O)C(C)(CO)C5CCC43C)C2C1` (stereo not given) has an LC retention time of 6.15 min.
In the case of `O=c1c(O)c(-c2ccc(O)c(O)c2)oc2cc(O)cc(O)c12`, the LC retention time is reported as 5.37 min.
`NC(CCCCNC(=O)C=Cc1ccc(O)c(O)c1)C(=O)O` (stereo not given) gave an LC retention time of 2.61 min.
With `CC(C)=CCc1c(O)ccc(C(=O)C=Cc2ccc(O)cc2)c1O` the LC retention time was 8.93 min.
In the case of `NC(CCC(=O)NC(Cc1ccccc1)C(=O)O)C(=O)O` (stereo not given), the LC retention time is reported as 3.04 min.
`COc1cc(-c2oc3cc(O)cc(O)c3c(=O)c2O)cc(O)c1O` gave an LC retention time of 5.37 min.
`CCSSCC(NCC1(O)OCC(O)C(O)C1O)C(=O)NCCC(=O)O` (stereo not given) showed an LC retention time of 3.29 min.
For `COc1ccc(-c2cc(=O)c3c(O)cc(O)cc3o2)cc1-c1c(O)cc(O)c2c(=O)cc(-c3ccc(O)cc3)oc12`, the LC retention time was 6.07 min.
Work on `CC=CS(=O)CC(NC(=O)CCC(NCC1(O)OCC(O)C(O)C1O)C(=O)O)C(=O)O` (stereo not given) yielded an LC retention time of 1.83 min.
`CC(C)C(N)C(=O)NC(C(=O)O)C(C)C` (stereo not given) showed an LC retention time of 2.15 min.
For `CC(=O)OC1CCC2(C)C(=CCC3C2CCC2(C)C3CC3OC4(CCC(C)CN4)C(C)C32)C1` (stereo not given), the LC retention time was 8.16 min.
For `COc1cc(-c2oc3cc(O)cc(O)c3c(=O)c2OC2OC(CO)C(O)C(O)C2O)cc(OC)c1O` (stereo not given), the LC retention time was 4.36 min.
`NCCCCNC(=O)C=Cc1ccccc1` showed an LC retention time of 3.7 min.
`COc1ccc(-c2cc(=O)c3c(O)cc(OC4OC(CO)C(O)C(O)C4OC4OC(C)C(O)C(O)C4O)cc3o2)cc1O` (stereo not given) gave an LC retention time of 4.47 min.
`C=CC1C(OC2OC(CO)C(O)C(O)C2O)OC=C2C(=O)N3CCc4c([nH]c5ccccc45)C3CC21` (stereo not given) gave an LC retention time of 5.56 min.
In the case of `COc1cc2c(cc1OC)C(C)=NCC2`, the LC retention time is reported as 2.93 min.
Molecule `NCCCCNC(=O)c1ccccc1` has an LC retention time of 2.71 min.
Molecule `COc1cc2c(cc1OC)C1C(C)c3ccc(OC)c(OC)c3CN1CC2` (stereo not given) has an LC retention time of 4.86 min.
Molecule `Oc1cc(O)c2cc(OC3OCC(O)C(O)C3O)c(-c3ccc(O)c(O)c3)[o+]c2c1` (stereo not given) has an LC retention time of 3.01 min.
Molecule `O=c1cc(-c2ccc(O)c(O)c2)oc2c(C3OC(CO)C(O)C(O)C3O)c(O)c(C3OCC(O)C(O)C3O)c(O)c12` (stereo not given) has an LC retention time of 3.19 min.
`Nc1nc2c(ncn2C2OC(CO)C(O)C2O)c(=O)[nH]1` (stereo not given) gave an LC retention time of 1.93 min.
`COc1cc(-c2[o+]c3cc(O)cc(O)c3cc2OC2OC(CO)C(O)C(O)C2O)cc(O)c1O` (stereo not given) showed an LC retention time of 3.21 min.
In the case of `CC(C)C(O)(C(=O)OCC1CCN2CCCC12)C(C)O` (stereo not given), the LC retention time is reported as 3.05 min.
With `CC=C1CN2C3CC1C(CO)C2Cc1c3[nH]c2ccccc12` (stereo not given) the LC retention time was 3.58 min.
`O=S(=O)(O)ON=C(CC(O)c1ccccc1)SC1OC(CO)C(O)C(O)C1O` (stereo not given) showed an LC retention time of 2.71 min.
Work on `COc1cc(-c2[o+]c3cc(O)cc(OC4OC(CO)C(O)C(O)C4O)c3cc2OC2OC(CO)C(O)C(O)C2O)cc(OC)c1O` (stereo not given) yielded an LC retention time of 2.81 min.
Work on `CC1OC(OC2C(c3c(O)cc(O)c4c(=O)cc(-c5ccc(O)cc5)oc34)OC(CO)C(O)C2O)C(O)C(O)C1O` (stereo not given) yielded an LC retention time of 4.61 min.
For `C=CC1C(OC2OC(CO)C(O)C(O)C2O)OC=C(C(=O)OC)C1CC1NC(C(=O)O)Cc2c1[nH]c1ccccc21` (stereo not given), the LC retention time was 4.13 min.
With `CCCCCC=CCC=CCC=CCCCCC(=O)OC(CO)COP(=O)(O)OCCN` (stereo not given) the LC retention time was 8.73 min.
`COc1ccc(-c2coc3cc(OC4OC(COC(=O)CC5CCNCC5)C(O)C(O)C4O)c(OC)cc3c2=O)cc1` (stereo not given) gave an LC retention time of 4.67 min.
For `CC(C)=CCCC(C)(O)C1CCC2(C)C1C(O)CC1C3(C)CCC(O)C(C)(C)C3C(OC3OC(CO)C(O)C(O)C3O)CC12C` (stereo not given), the LC retention time was 6.29 min.
`COc1cc(-c2oc3cc(OC4OC(CO)C(O)C(O)C4O)cc(O)c3c(=O)c2OC2OC(CO)C(O)C(O)C2O)cc(OC2OC(CO)C(O)C(O)C2O)c1O` (stereo not given) showed an LC retention time of 2.8 min.
With `COc1c(-c2ccccc2)oc2c(OC)c(O)cc(O)c2c1=O` the LC retention time was 5.71 min.
`CCC(C)C(NC(=O)Cc1c[nH]c2ccccc12)C(=O)O` (stereo not given) gave an LC retention time of 6.14 min.
Work on `O=C(O)c1cc2c(c3c1c([N+](=O)[O-])cc1ccccc13)OCO2` yielded an LC retention time of 7.55 min.
Molecule `CC1(C(=O)O)CCC2(C)CCC3(C)C(=CCC4C5(C)CCC(OC6OC(C(=O)O)C(O)C(O)C6OC6OC(C(=O)O)C(O)C(O)C6O)C(C)(C)C5CCC43C)C2C1` (stereo not given) has an LC retention time of 6.45 min.
Molecule `COc1cc(C=CC(=O)OC(CC(=O)O)C(=O)O)cc(OC)c1O` (stereo not given) has an LC retention time of 4.23 min.
`O=C(C=Cc1ccc(O)c(O)c1)OC1CC(OC(=O)C=Cc2ccc(O)c(O)c2)(C(=O)O)CC(O)C1O` (stereo not given) showed an LC retention time of 3.49 min.
For `COc1ccc(-c2coc3cc(OC4OC(COC(=O)CC5CCNCC5)C(O)C(O)C4O)ccc3c2=O)cc1` (stereo not given), the LC retention time was 4.67 min.
With `COc1c2c(cc3c(-c4ccc5c(c4)OCO5)c4c(cc13)C(=O)OC4)OCO2` the LC retention time was 8.93 min.
In the case of `CC1CCC2(NC1)OC1CC3C4CCC5CC(OC6OC(CO)C(OC7OC(CO)C(O)C(OC8OCC(O)C(O)C8O)C7OC7OC(CO)C(O)C(O)C7O)C(O)C6O)CCC5(C)C4CCC3(C)C1C2C` (stereo not given), the LC retention time is reported as 4.81 min.
